Laboratory results taken from patent publication US20210300940A1 (Merck Patent GmbH, priority 2018, published 2021).
Structures can show the parent of a compound that is named as a salt.

Legend:
TLR7 = molecular target: T1, TLR7 (Homo sapiens, UniProt Q9NYK1); assay: HEK/293 TLR7 Cell Assay; type: cell-based; conditions: TLR7/NFKb HEK cells, R848 agonist 10 uM final concentration, Steady-Glo readout; read-out: TLR7 potency
T1 construct: expressed in transfected cells; host or cells: HEK/293 cells carrying TLR7 and an NF-kB luciferase reporter
T1 sequence (Q9NYK1 27-1049): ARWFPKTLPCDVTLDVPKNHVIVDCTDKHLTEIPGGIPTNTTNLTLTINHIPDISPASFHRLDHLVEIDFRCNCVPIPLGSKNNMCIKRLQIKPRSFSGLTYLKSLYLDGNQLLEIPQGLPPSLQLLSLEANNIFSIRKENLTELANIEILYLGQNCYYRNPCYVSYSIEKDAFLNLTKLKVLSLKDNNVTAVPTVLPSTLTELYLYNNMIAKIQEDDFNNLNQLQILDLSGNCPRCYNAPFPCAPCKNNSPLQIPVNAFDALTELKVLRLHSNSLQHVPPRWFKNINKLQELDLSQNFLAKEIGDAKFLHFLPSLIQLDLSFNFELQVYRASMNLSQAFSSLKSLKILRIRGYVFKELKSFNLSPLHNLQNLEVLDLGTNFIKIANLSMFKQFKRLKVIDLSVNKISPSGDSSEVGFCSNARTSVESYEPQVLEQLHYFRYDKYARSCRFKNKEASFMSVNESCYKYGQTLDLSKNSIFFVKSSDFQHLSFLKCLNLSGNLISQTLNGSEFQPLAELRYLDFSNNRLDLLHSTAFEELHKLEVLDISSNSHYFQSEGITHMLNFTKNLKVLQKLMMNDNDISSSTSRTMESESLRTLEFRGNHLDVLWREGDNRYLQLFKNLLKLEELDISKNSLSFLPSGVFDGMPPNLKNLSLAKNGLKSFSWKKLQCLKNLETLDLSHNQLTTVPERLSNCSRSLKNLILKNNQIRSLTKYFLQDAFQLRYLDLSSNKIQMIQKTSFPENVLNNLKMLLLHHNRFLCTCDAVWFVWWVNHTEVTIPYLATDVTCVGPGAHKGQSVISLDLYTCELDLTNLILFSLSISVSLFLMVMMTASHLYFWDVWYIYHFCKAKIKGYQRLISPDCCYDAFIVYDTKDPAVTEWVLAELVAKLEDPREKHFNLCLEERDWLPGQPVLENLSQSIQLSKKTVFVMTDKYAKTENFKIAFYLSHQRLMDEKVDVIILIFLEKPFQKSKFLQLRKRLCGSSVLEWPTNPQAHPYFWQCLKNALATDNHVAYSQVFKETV
Outline: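 Compounds added to HEK cells expressing TLR7 with an NFκB reporter 30 min ahead of 10 uM R848 challenge; luciferase signal (Steady-Glo) measured after 5 h, cells having been seeded 24 h earlier at 5000 per well.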

TLR8 = molecular target: T2, TLR8 (Homo sapiens, UniProt Q9NR97); assay: HEK/293 TLR8 Cell Assay; type: cell-based; conditions: HEK cells, R848 agonist 30 uM final concentration, Steady-Glo readout; read-out: TLR8 potency
T2 construct: expressed in transfected cells; host or cells: HEK/293 reporter cells (NF-kB luciferase)
T2 sequence (Q9NR97 27-1041): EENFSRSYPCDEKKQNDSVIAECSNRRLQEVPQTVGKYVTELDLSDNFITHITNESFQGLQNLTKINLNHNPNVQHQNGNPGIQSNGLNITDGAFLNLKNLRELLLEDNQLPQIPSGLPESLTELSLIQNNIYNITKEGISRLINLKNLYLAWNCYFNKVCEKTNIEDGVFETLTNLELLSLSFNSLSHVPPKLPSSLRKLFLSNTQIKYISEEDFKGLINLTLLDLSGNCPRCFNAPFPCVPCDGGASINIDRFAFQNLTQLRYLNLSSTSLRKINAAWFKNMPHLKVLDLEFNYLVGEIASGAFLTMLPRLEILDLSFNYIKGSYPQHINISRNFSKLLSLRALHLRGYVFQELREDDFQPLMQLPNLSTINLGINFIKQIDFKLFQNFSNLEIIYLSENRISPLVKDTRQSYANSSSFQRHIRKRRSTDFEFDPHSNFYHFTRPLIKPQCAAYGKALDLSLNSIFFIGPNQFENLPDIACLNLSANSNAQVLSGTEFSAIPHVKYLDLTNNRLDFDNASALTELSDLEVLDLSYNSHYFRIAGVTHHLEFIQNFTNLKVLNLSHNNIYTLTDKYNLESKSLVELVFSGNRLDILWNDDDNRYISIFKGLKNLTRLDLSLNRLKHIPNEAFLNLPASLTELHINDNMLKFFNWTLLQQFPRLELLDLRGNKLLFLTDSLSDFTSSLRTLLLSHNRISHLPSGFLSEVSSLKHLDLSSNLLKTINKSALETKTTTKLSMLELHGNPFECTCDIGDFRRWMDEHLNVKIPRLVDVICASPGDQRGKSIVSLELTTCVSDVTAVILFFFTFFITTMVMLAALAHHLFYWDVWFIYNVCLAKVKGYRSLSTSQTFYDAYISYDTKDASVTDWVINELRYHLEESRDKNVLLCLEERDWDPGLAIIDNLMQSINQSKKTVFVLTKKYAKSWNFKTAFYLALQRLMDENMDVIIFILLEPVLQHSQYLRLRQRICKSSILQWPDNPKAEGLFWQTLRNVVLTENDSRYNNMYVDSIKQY

Compound | IC50 (TLR7) [µM] | IC50 (TLR8) [µM]
C[C@@H]1CN(c2cnc(C#N)c3ncccc23)C[C@H](C(=O)NC[C@H]2CCCN2C)O1 [Example 276, (2R,6R)-4-(8-Cyano-[1,7]naphthyridin-5-yl)-6-methyl-morpholine-2-carboxylic acid ((R)-1-methyl-pyrrolidin-2-ylmethyl)-amide] | < 0.075 | 0.075 to 0.15
C[C@@H]1CN(c2cnc(C#N)c3ncccc23)C[C@H](C(=O)NC2CCC(N3CCOCC3)CC2)O1 (stereo partly drawn) [Example 277, (2R,6R)-4-(8-Cyano-[1,7]naphthyridin-5-yl)-6-methyl-morpholine-2-carboxylic acid (4-morpholin-4-yl-cyclohexyl)-amide] | < 0.075 | < 0.075
C[C@@H]1CN(c2ccc(C#N)c3nccnc23)C[C@H](C(=O)N2C[C@@H](N)C3(CC3)C2)O1 [Example 288, 8-[(2R,6R)-2-((S)-7-Amino-5-aza-spiro[2.4]heptane-5-carbonyl)-6-methyl-morpholin-4-yl]-quinoxaline-5-carbonitrile] | < 0.075 | < 0.075
C[C@@H]1CN(c2ccc(C#N)c3nccnc23)C[C@H](C(=O)NC2CCNCC2(F)F)O1 (stereo partly drawn) [Example 289, (2R,6R)-4-(8-Cyano-quinoxalin-5-yl)-6-methyl-morpholine-2-carboxylic acid (3,3-difluoro-piperidin-4-yl)-amide] | < 0.075 | < 0.075
C[C@@H]1CN(c2ccc(C#N)c3nccnc23)C[C@H](C(=O)NCC2(F)CCNCC2)O1 [Example 290, (2R,6R)-4-(8-Cyano-quinoxalin-5-yl)-6-methyl-morpholine-2-carboxylic acid (4-fluoro-piperidin-4-ylmethyl)-amide] | < 0.075 | < 0.075
C[C@@H]1CN(c2ccc(C#N)c3nccnc23)C[C@H](C(=O)NC2CCNC3(CCC3)C2)O1 (stereo partly drawn) [Example 291, (2R,6R)-4-(8-Cyano-quinoxalin-5-yl)-6-methyl-morpholine-2-carboxylic acid (5-aza-spiro[3.5]non-8-yl)-amide] | < 0.075 | < 0.075
C[C@@H]1CN(c2ccc(C#N)c3nccnc23)C[C@H](C(=O)NCC2(F)CCNC2)O1 (stereo partly drawn) [Example 292, (2R,6R)-4-(8-Cyano-quinoxalin-5-yl)-6-methyl-morpholine-2-carboxylic acid (3-fluoro-pyrrolidin-3-ylmethyl)-amide] | < 0.075 | < 0.075
C[C@@H]1CN(c2ccc(C#N)c3nccnc23)C[C@H](C(=O)NCC2(F)CNC2)O1 [Example 293, (2R,6R)-4-(8-Cyano-quinoxalin-5-yl)-6-methyl-morpholine-2-carboxylic acid (3-fluoro-azetidin-3-ylmethyl)-amide] | < 0.075 | < 0.075
C[C@@H]1CN(c2ccc(C#N)c3nccnc23)C[C@H](C(=O)N[C@H]2CNC[C@H]2F)O1 [Example 294, (2R,6R)-4-(8-Cyano-quinoxalin-5-yl)-6-methyl-morpholine-2-carboxylic acid ((3S,4R)-4-fluoro-pyrrolidin-3-yl)-amide hydrochloride (2)] | < 0.075 | < 0.075
C[C@@H]1CN(c2ccc(C#N)c3nccnc23)C[C@H](C(=O)N2C[C@H](N)C[C@H](C(F)(F)F)C2)O1 [Example 295, 8-[(2R,6R)-2-((3R,5S)-3-Amino-5-trifluoromethyl-piperidine-1-carbonyl)-6-methyl-morpholin-4-yl]-quinoxaline-5-carbonitrile hydrochloride (2)] | < 0.075 | < 0.075
Cc1c(F)cc(N2C[C@@H](C)O[C@@H](C(=O)N[C@H]3CNC[C@H]3F)C2)c2cccnc12 [Example 298, (2R,6R)-4-(7-Fluoro-8-methyl-quinolin-5-yl)-6-methyl-morpholine-2-carboxylic acid ((3S,4R)-4-fluoro-pyrrolidin-3-yl)-amide] | < 0.075 | < 0.075
C[C@@H]1CN(c2ccc(C#N)c3ncncc23)C[C@H](C(=O)NC2CCNCC2(F)F)O1 (stereo partly drawn) [Example 299, (2R,6R)-4-(8-Cyano-quinazolin-5-yl)-6-methyl-morpholine-2-carboxylic acid (3,3-difluoro-piperidin-4-yl)-amide] | < 0.075 | < 0.075
C[C@@H]1CN(c2cnc(C#N)c3ncccc23)C[C@H](C(=O)NCC2(F)CCNCC2)O1 [Example 300, (2R,6R)-4-(8-Cyano-[1,7]naphthyridin-5-yl)-6-methyl-morpholine-2-carboxylic acid (4-fluoro-piperidin-4-ylmethyl)-amide] | < 0.075 | 0.075 to 0.15
C[C@@H]1CN(c2cnc(C#N)c3ncccc23)C[C@H](C(=O)NCC2(F)CNC2)O1 [Example 301, (2R,6R)-4-(8-Cyano-[1,7]naphthyridin-5-yl)-6-methyl-morpholine-2-carboxylic acid (3-fluoro-azetidin-3-ylmethyl)-amide] | < 0.075 | < 0.075
C[C@@H]1CN(c2cnc(C#N)c3ncccc23)C[C@H](C(=O)NC2CCNCC2(F)F)O1 (stereo partly drawn) [Example 302, (2R,6R)-4-(8-Cyano-[1,7]naphthyridin-5-yl)-6-methyl-morpholine-2-carboxylic acid (3,3-difluoro-piperidin-4-yl)-amide] | > 0.15 | > 0.15
C[C@@H]1CN(c2ccc(C#N)c3nccnc23)C[C@H](C(=O)N[C@@H](CO)C(=O)O)O1 [Example 321, (S)-2-{[(2R,6R)-4-(8-Cyano-quinoxalin-5-yl)-6-methyl-morpholine-2-carbonyl]-amino}-3-hydroxy-propionic acid] | 0.075 to 0.15 | > 0.15
C[C@@H]1CN(c2ccc(C#N)c3nccnc23)C[C@H](C(=O)N[C@@H]2CCN(CC3CC3)C2)O1 [Example 323, (2R,6R)-4-(8-Cyano-quinoxalin-5-yl)-6-methyl-morpholine-2-carboxylic acid ((R)-cyclopropylmethyl-pyrrolidin-3-yl)-amide] | < 0.075 | < 0.075
C[C@@H]1CN(c2ccc(C(F)(F)F)c3ncccc23)C[C@H](CN2CCC(N3CCCC3)CC2)O1 [Example 328, 5-[(2R,6S)-2-Methyl-6-(4-pyrrolidin-1-yl-piperidin-1-ylmethyl)-morpholin-4-yl]-8-trifluoromethyl-quinoline] | < 0.075 | 0.075 to 0.15
C[C@@H]1CN(c2ccc(C(F)(F)F)c3ncccc23)C[C@H](CN2CCC(N3CCOCC3)CC2)O1 [Example 329, 5-[(2R,6S)-2-Methyl-6-(4-morpholin-4-yl-piperidin-1-ylmethyl)-morpholin-4-yl]-8-trifluoromethyl-quinoline] | 0.075 to 0.15 | < 0.075
